Experimental data published in patent US9809623B2, “α4β7 peptide monomer and dimer antagonists” (Protagonist Therapeutics, Inc., priority 2014, dated 2017).
pIC50: −log10 of the molar value. Numbered stars: 1 amine (or outer) side, 2 acyl side, 3 side chain; on linkers, the order of the positions; unused ones are H or OH. Bridge positions count the residues as written; N and C are the ends. Square brackets hold non-standard residues; d marks the D form. Peptide text beside a SMILES is read from it. I, II: the chains in the order shown. Phe(4-tBu) = CC(C)(C)c1ccc(C[C@H](N)C(=O)O)cc1; Diglycolyl = O=C(COCC(=O)[*:2])[*:1]; NMeR = CN[C@@H](CCCNC(=N)N)C(=O)O; β3hE = N[C@@H](CCC(=O)O)CC(=O)O; Pen = CC(C)(S)[C@H](N)C(=O)O

Key:
[1] = Simulated Intestinal Fluid (SIF) Stability Assay; type: in vitro ADME, porcine; conditions: pig, simulated intestinal fluid (SIF) with 1% porcine pancreatin, pH 6.5, Table 3-B; > means experiment was stopped at that time and half life was not reached; read-out: Stabilty SIF t1/2
Summary of the method: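 Peptides (22 μM final) incubated at 37 °C in FASSIF (pH 6.5) with 1% porcine pancreatin; aliquots quenched at various times and analyzed by LC-MS/MS against internal standard. Half-life from first-order exponential decay fit of percent remaining.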

α4β7 [2] = target: T1, α4β7 (Homo sapiens, UniProt P13612+P26010); test: PBMC Memory T Cell Adhesion Assay, adhesion to MAdCAM-1; type: cell-based; conditions: Table 3-B; range classes; read-out: PBMC IC50
Procedure: Fresh CD4+/CD45RO+ memory T cells were isolated from human peripheral blood mononuclear cell (PBMC) donors by Aragen Bioscience Inc. (Morgan Hill, Calif.). The assay plate was prepared using IgG Fc capture antibody (donkey anti human) immobilized at 500 ng/well in 50 mM sodium bicarbonate buffer, pH 9.5, ON, 4C onto a Greiner Fluotrac plate (100 ul per well). The plate was rinsed two time with Blocking Buffer (25 mM Tris HCl, pH7.5, 150 mM NaCl, 1.5% BSA, 0.05% Tween), and blocked with Blocking Buffer for 2 hours at 37 C or 5 hours at RT using 200 ul per well. The Blocking Buffer was removed and either MAdCAM-1 or VCAM-1 at 400 ng/well in Blocking Buffer was added and the plate incubated overnight at 4C (100 ul per well). The plate was washed two times with Blocking Buffer, and rinsed once with 200 ul Binding Media (DMEM phenol red free, 10 mM HEPES, 1×Na pyruvate, 1× Glutamine, and supplemented with 1 mM MnCl2 prior to use). To prepare cells, approximately 25 million CD4+/CD45RO+ memory T cells were counted by trypan blue exclusion using a haemocytometer to determine viability and cell count. The cells were transferred to a 50 ml conical tube, and centrifuged at 1200 rpm for 10 minute. The media was aspirated and the cell pellet resuspended in 15 ml Binding Media. The cells were centrifuged again and resuspended in the appropriate amount of Binding Media to be used for assays (50 ul of cells per well at 2× the final density). To each well, and equal volume (50 ul) of test compound was added and the plate was incubated for 1.5 hours at 37 C, 5% CO2. Each well was rinsed 3× with 150 ul per well of Binding Media. […] The plate was incubated at 37 C, 5% CO2, for 45 minutes. The plate was protected from light by using black adhesive seals. Fluorescence intensity was measured using a Molecular Devices Gemini EM Fluorescent Plate Reader (Ex 485/Em530, Bottom Read, Reading Sensitivity=20). IC50 curves are generated using Graph Pad Prism and the curves analyzed using analyzed using a non-linear regression (four parameters) algorithm. The log (concentration) versus RFU (Ex485/Em530) was plotted to determine IC50 values.

α4β7 [3] = target: T1, α4β7; test: α4β7-MAdCAM Cell Adhesion Assay (RPMI 8866 human cells); type: cell-based; set-up: host or cells: RPMI 8866 human B lymphoblastoid cells; conditions: Table 3-B, Potency (α4β7); range classes; read-out: α4β7 cell (Hu) IC50
Summary of the method: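 Washed RPMI 8866 cells (200,000/well) in DMEM with 0.1% BSA, 10 mM HEPES pH 7, 1 mM MnCl2 adhered to rh MAdCAM-1/Fc-coated wells with serially diluted peptides, 30-45 min at 37 °C. After three washes, bound cells quantified by MTT, A570, cell-free background subtracted for dose response.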

T1 sequence (P13612 34-1032): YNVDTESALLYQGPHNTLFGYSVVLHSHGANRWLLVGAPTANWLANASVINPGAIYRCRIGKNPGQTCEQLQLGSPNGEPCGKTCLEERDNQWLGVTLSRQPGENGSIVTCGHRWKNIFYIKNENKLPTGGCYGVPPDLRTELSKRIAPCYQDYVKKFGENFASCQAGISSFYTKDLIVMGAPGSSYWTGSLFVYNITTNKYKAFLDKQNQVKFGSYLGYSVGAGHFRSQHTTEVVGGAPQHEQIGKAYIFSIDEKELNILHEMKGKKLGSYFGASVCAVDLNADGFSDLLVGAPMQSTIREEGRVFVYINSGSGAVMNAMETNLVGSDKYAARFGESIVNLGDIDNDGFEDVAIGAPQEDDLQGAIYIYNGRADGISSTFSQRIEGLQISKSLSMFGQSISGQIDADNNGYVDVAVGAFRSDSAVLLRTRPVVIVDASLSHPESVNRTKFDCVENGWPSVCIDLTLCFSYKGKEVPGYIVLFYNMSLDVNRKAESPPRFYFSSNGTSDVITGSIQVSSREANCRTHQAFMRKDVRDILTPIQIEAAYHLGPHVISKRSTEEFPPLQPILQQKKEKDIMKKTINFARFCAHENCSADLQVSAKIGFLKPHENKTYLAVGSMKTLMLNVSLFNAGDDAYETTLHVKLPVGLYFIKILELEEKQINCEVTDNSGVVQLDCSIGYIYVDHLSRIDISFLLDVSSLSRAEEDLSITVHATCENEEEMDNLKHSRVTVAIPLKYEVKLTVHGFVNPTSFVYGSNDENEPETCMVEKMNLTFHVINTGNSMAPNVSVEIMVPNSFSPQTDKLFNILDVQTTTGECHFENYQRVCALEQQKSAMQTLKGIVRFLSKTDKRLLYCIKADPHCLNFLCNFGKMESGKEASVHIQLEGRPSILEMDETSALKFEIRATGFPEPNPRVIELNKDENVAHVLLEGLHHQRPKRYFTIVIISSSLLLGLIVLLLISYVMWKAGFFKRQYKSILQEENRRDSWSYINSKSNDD
T1 sequence (P26010 20-798): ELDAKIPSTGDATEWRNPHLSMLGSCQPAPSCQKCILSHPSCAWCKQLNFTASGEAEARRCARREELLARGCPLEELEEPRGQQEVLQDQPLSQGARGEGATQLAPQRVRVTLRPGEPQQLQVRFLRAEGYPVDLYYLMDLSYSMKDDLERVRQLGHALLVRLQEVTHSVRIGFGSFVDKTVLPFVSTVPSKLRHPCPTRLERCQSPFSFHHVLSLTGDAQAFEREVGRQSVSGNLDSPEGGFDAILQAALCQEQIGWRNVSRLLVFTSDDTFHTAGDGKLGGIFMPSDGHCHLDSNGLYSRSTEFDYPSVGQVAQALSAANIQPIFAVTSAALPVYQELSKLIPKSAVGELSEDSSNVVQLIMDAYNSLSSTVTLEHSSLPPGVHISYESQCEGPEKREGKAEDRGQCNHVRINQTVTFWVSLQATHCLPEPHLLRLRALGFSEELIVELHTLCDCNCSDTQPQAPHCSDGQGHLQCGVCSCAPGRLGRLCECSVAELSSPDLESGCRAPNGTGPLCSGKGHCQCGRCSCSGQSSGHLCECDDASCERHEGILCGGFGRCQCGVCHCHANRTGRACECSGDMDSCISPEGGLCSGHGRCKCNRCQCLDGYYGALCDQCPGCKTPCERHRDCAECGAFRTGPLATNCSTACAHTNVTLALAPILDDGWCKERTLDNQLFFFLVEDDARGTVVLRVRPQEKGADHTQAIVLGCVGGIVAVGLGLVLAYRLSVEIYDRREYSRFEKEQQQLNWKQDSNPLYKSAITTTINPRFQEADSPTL

Row | SMILES | half-life at 22 μM [1] [h] | pIC50 (α4β7 [2]) | pIC50 (α4β7 [3])
1 | CC(=O)N[C@@H]1C(=O)N(C)[C@@H](CCCNC(=N)N)C(=O)N[C@@H](CO)C(=O)N[C@@H](CC(=O)O)C(=O)N[C@@H]([C@@H](C)O)C(=O)N[C@@H](CC(C)C)C(=O)N[C@H](C(=O)N[C@@H](Cc2ccc(C(C)(C)C)cc2)C(=O)N[C@@H](CCC(=O)O)CC(N)=O)C(C)(C)SSC1(C)C [compound 165] (Ac-[Pen][NMeR]SDTL[Pen][Phe(4-tBu)][β3hE]-NH2; disulfide 1-7) | > 3 | 6.30 to 7.00 | 7.60 to 8.00
2 | CC(=O)N[C@@H]1C(=O)N(C)[C@@H](CCCNC(=N)N)C(=O)N[C@@H](CO)C(=O)N[C@@H](CC(=O)O)C(=O)N[C@@H]([C@@H](C)O)C(=O)N[C@@H](CC(C)C)C(=O)N[C@H](C(=O)N[C@@H](Cc2ccc(C(C)(C)C)cc2)C(=O)N[C@@H](CCC(=O)O)CC(=O)N[C@H](CCCCNC(=O)CN(CC(=O)NCCCC[C@@H](NC(=O)C[C@H](CCC(=O)O)NC(=O)[C@H](Cc2ccc(C(C)(C)C)cc2)NC(=O)[C@H]2NC(=O)[C@H](CC(C)C)NC(=O)[C@H]([C@@H](C)O)NC(=O)[C@H](CC(=O)O)NC(=O)[C@H](CO)NC(=O)[C@H](CCCNC(=N)N)N(C)C(=O)[C@@H](NC(C)=O)C(C)(C)SSC2(C)C)C(N)=O)C(=O)CCN)C(N)=O)C(C)(C)SSC1(C)C [compound 166] | – | > 8.00 | > 8.00
3 | CC(=O)N[C@@H]1C(=O)N(C)[C@@H](CCCNC(=N)N)C(=O)N[C@@H](CO)C(=O)N[C@@H](CC(=O)O)C(=O)N[C@@H]([C@@H](C)O)C(=O)N[C@@H](CC(C)C)C(=O)N[C@H](C(=O)N[C@@H](Cc2ccc(C(C)(C)C)cc2)C(=O)N[C@@H](CCC(=O)O)CC(=O)N[C@H](CCCCNC(=O)COCC(=O)NCCCC[C@@H](NC(=O)C[C@H](CCC(=O)O)NC(=O)[C@H](Cc2ccc(C(C)(C)C)cc2)NC(=O)[C@H]2NC(=O)[C@H](CC(C)C)NC(=O)[C@H]([C@@H](C)O)NC(=O)[C@H](CC(=O)O)NC(=O)[C@H](CO)NC(=O)[C@H](CCCNC(=N)N)N(C)C(=O)[C@@H](NC(C)=O)C(C)(C)SSC2(C)C)C(=O)O)C(=O)O)C(C)(C)SSC1(C)C [compound 168] (I: Ac-[Pen][NMeR]SDTL[Pen][Phe(4-tBu)][β3hE][dK]-OH / II: Ac-[Pen][NMeR]SDTL[Pen][Phe(4-tBu)][β3hE][dK]-OH; disulfide I:1-I:7, II:1-II:7; linker I:10-II:10 via Diglycolyl) | – | > 8.00 | > 8.00
